Here are results for 46 substances from PMC11118832 (Biomolecules, 2024).

pEC50, pIC50: −log10 of the molar value. Ends that are not written are not given here.

Test system in the first data set: not given
Assay: not given
As to conditions: pH 6.4.
On to Ac-LVIVGAAWDYKY-NH2 [B2.22], for which the “Solubility / precipitation in NMR buffer” value was “too hydrophobic and precipitated totally out of the solution”.

For a further data set, the target named is T1, PD-1/PD-L1 (Homo sapiens, UniProt Q15116).
T1 construct: this kit uses ectodomains of PD-1 and PD-L1 that are expressed with orthogonal fusion tags (Tag-1 and Tag-2); purchased CisBio (currently Perkin-Elmer, Bedford, MA)
Briefly: In vitro time-resolved FRET PD-1/PD-L1 binding assay (CisBio kit). As to conditions: CisBio PD-1/PD-L1 binding kit, TR FRET, 96-well, 4-fold serial dilutions in triplicate, freshly dissolved peptides; read-out: IC50, inhibition of PD-1/PD-L1 binding (TR FRET assay). Put shortly: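 Tagged PD-1 and PD-L1 ectodomains were detected with donor- and acceptor-labeled anti-tag antibodies; complex formation gives a time-resolved FRET signal. Freshly dissolved peptides were tested in triplicate 4-fold serial dilutions, with no-peptide and no-protein wells as controls. IC50 is the concentration reducing TR-FRET by 50%.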
A general note: In TR-FRET formats the signal depends on donor and acceptor labels being close together.
Regarding Ac-DVIVGAAWDYKY-NH2 [B3.15], the pIC50 is 6.89.

For Ac-LVIVGAAWDYKY-NH2 [B2.22], the pIC50 is 6.15.

Staying with this data set, now noted: CisBio PD-1/PD-L1 binding kit, TR FRET, 96-well, serial dilutions in triplicate; NI = no inhibition at maximum concentration tested (* 5 μM, ** 50 μM); read-out: EC50 (Supplementary Table S1; inhibition of PD-1/PD-L1 binding by in vitro TR-FRET assay).
For orientation: pEC50 means −log10 of the EC50, conventionally taken in molar units. Ac-DVIVGAAWDYKY-NH2 [B3.15]: the pEC50 was 6.89.

For the substance Ac-DVIVGAAWDYKYLQ-NH2 [B7.5], the negative logarithm of the EC50 (pEC50) is < 5.30.

With Ac-DVIVGAAWDYKYLT-NH2 [B7.1], the pEC50 was < 5.30.

Consider Ac-DVIVGAAWDYKYLY-NH2 [B7.4], for which the pEC50 is < 5.30.

For Ac-DVIVGASWDYKY-NH2 [B7.3], the pEC50 was < 5.30.

On to Ac-DVIVGSAWDYKY-NH2 [B7.2], for which the pEC50 is < 5.30.

In the case of Ac-DVIYGAAWDYKY-NH2 [B7.10], the pEC50 was < 5.30.

Take Ac-DVIYGAAWDYKYLT-NH2 [B7.11]: the negative-log EC50 (pEC50) was < 5.30.

In the case of Ac-DVLDGAAWDYKY-NH2 [B8.13], the pEC50 is < 5.30.

With Ac-DVVDGAAWDYKY-NH2 [B8.3], the pEC50 is < 5.30.

Consider Ac-DVWVGAAWDYKY-NH2 [B5.2], for which the pEC50 is < 5.30.

As to Ac-DWIVGAAWDYKY-NH2 [B5.13], the pEC50 is < 5.30.

Regarding Ac-EAAWDYKY-NH2 [B9.7], the pEC50 was < 4.30.

For the substance Ac-EAWDYKY-NH2 [B9.4], the pEC50 is < 5.30.

With Ac-EGAAWDYKY-NH2 [B9.6], the negative logarithm of the EC50 (pEC50) was < 4.30.

Turning to Ac-EVIDGAAWDYKY-NH2 [B8.17], the pEC50 is < 5.30.

Consider Ac-EVIVGAAWDYKY-NH2 [B5.12], for which the negative logarithm of the EC50 (pEC50) is < 5.30.

For the substance “Ac-GADYKRITVKVN-NH2 [PL-120, reference compound]”, the negative logarithm of the EC50 (pEC50) was 4.46.

For the substance Ac-IVGAAWDYKY-NH2 [B3.1], the negative logarithm of the EC50 (pEC50) is < 4.30.

Ac-LEIKGAEWDYKY-NH2 [B3.18]: the pEC50 is < 4.30.

Consider Ac-LVDVGAAWDYKY-NH2 [B3.16], for which the negative-log EC50 (pEC50) was < 4.30.

For the substance Ac-LVIVGAAWDRKY-NH2 [B3.17], the negative logarithm of the EC50 (pEC50) is < 4.30.

As to Ac-LVIVGAAWDYK-NH2 [B3.14], the pEC50 was < 5.30.

With Ac-LVIVGAAWDYKR-NH2 [B3.4], the negative logarithm of the EC50 (pEC50) is 4.68.

Consider Ac-LVIVGAAWDYKY-NH2 [B2.22], for which the pEC50 is 6.15.

In the case of Ac-LVIVGARWDYKR-NH2 [B3.7], the negative logarithm of the EC50 (pEC50) is 4.59.

Consider Ac-LVIVGPAWDYKY-NH2 [B3.9], for which the negative-log EC50 (pEC50) is 5.07.

As to Ac-LVWVGAAWDRKY-NH2 [B3.19], the negative-log EC50 (pEC50) was 5.30.

On to Ac-LVWVGAAWDYKY-NH2 [B3.2], for which the pEC50 was < 4.30.

As to Ac-NVIDGAAWDYKY-NH2 [B8.5], the negative-log EC50 (pEC50) was < 5.30.

Turning to Ac-NVIVGAAWDYKY-NH2 [B7.7], the pEC50 is < 5.30.

As to Ac-RSMISYGGADDYK-NH2 [B1.1], the negative logarithm of the EC50 (pEC50) is 4.62.

Ac-RVFVFVGAAWDYKY-NH2 [B2.21]: the negative logarithm of the EC50 (pEC50) is 4.90.

As to Ac-RVKVIVGAAWDYKY-NH2 [B2.11], the negative-log EC50 (pEC50) was 4.26.

On to Ac-RVLVIVGAALDYKY-NH2 [B2.30], for which the pEC50 is 4.46.

With Ac-RVLVIVGAAWDYKR-NH2 [B2.7], the negative logarithm of the EC50 (pEC50) is 4.26.

With Ac-RVLVIVGAAWDYKY-NH2 [B2.1], the negative-log EC50 (pEC50) was 4.52.

In the case of Ac-RVLVWVGAAWDYKY-NH2 [B2.18], the pEC50 is 6.00.

As for Ac-RVWVIVGAAWDYKY-NH2 [B2.12], the pEC50 was 4.70.

In the case of Ac-WVWVGAAWDYKY-NH2 [B3.8], the pEC50 is < 4.30.

In the case of Ac-YVLVIVGAAWDKKY-NH2 [B2.26], the pEC50 was 4.66.

In the case of DVIVGAAWDYKY [B5.14], the negative logarithm of the EC50 (pEC50) was < 5.30.

As to IVGAAWDYKY [B3.12], the pEC50 was < 4.30.

As for KRVLVIVGAAWDYKYE [B2.35], the pEC50 is 5.00.

As for LVIVGAAWDYKY [B3.11], the pEC50 is 4.85.

As for RVLVIVGAAWDYKY [B2.28], the pEC50 is 4.96.
